Source: ChEMBL document CHEMBL1201862, “PubChem BioAssay data set” (2004)
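These data come from cells grown in 96-well plates and exposed to compound for 48 hours at five concentrations. GI50 = concentration required for 50% inhibition of growth.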 The source made the active and inactive calls. No stated cut-off is given here; in the data, active = GI50 up to about 1.1 µM and inactive = higher.

What was measured:
Assay in all cases: DTP human tumour cell line panel, 48 h
SN12C = test system: SN12C
SNB-19 = test system: SNB-19
MDA-MB-435 = test system: MDA-MB-435
CCRF-CEM = test system: CCRF-CEM
A498 = test system: A498
SF-295 = test system: SF-295
OVCAR-4 = test system: OVCAR-4
786-0 = test system: 786-0
UACC-62 = test system: UACC-62
OVCAR-5 = test system: OVCAR-5
PC-3 = test system: PC-3
COLO 205 = test system: COLO 205
NCI-H460 = test system: NCI-H460
SF-539 = test system: SF-539
HCT-15 = test system: HCT-15
HL-60 = test system: HL-60
MDA-MB-231 = test system: MDA-MB-231
IGROV-1 = test system: IGROV-1
HT-29 = test system: HT-29
MDA-N = test system: MDA-N
SW-620 = test system: SW-620
LOX IMVI = test system: LOX IMVI
SK-OV-3 = test system: SK-OV-3
OVCAR-3 = test system: OVCAR-3
UACC-257 = test system: UACC-257
NCI/ADR-RES = test system: NCI/ADR-RES
OVCAR-8 = test system: OVCAR-8
SF-268 = test system: SF-268
UO-31 = test system: UO-31
EKVX = test system: EKVX
Malme-3M = test system: Malme-3M
RPMI-8226 = test system: RPMI-8226
U-251 = test system: U-251
SK-MEL-28 = test system: SK-MEL-28
ACHN = test system: ACHN
T47D = test system: T47D
DU-145 = test system: DU-145
NCI-H23 = test system: NCI-H23
HOP-62 = test system: HOP-62
MOLT-4 = test system: MOLT-4
HCT-116 = test system: HCT-116
MCF7 = test system: MCF7
SNB-75 = test system: SNB-75
SK-MEL-2 = test system: SK-MEL-2
SR = test system: SR
TK-10 = test system: TK-10
K562 = test system: K562
HCC 2998 = test system: HCC 2998

Question: What does the source list for CCCCN(CCCC)CC(O)c1cc(-c2ccc(Cl)c(Cl)c2)nc2c(Cl)cc(Cl)cc12 (stereo not drawn)?
Answer: GI50 (SN12C): 47.4 µM (inactive); GI50 (SNB-19): > 100 µM (inactive); GI50 (MDA-MB-435): > 100 µM (inactive); GI50 (CCRF-CEM): 65.3 µM (inactive); GI50 (A498): > 100 µM (inactive); GI50 (SF-295): > 100 µM (inactive); GI50 (OVCAR-4): > 100 µM (inactive); GI50 (786-0): > 100 µM (inactive); GI50 (UACC-62): > 100 µM (inactive); GI50 (OVCAR-5): > 100 µM (inactive); GI50 (PC-3): 36.4 µM (inactive); GI50 (COLO 205): > 100 µM (inactive); GI50 (NCI-H460): > 100 µM (inactive); GI50 (SF-539): > 100 µM (inactive); GI50 (HCT-15): 45.1 µM; GI50 (HL-60): 88.3 µM (inactive); GI50 (MDA-MB-231): 7.64 µM (inactive); GI50 (IGROV-1): > 100 µM (inactive); GI50 (HT-29): > 100 µM (inactive); GI50 (MDA-N): > 100 µM (inactive); GI50 (SW-620): 15.6 µM (inactive); GI50 (LOX IMVI): 88.1 µM (inactive); GI50 (SK-OV-3): > 100 µM (inactive); GI50 (OVCAR-3): > 100 µM (inactive); GI50 (UACC-257): 86.1 µM (inactive); GI50 (NCI/ADR-RES): > 100 µM (inactive); GI50 (OVCAR-8): > 100 µM (inactive); GI50 (SF-268): 39.7 µM (inactive); GI50 (UO-31): 66.4 µM (inactive); GI50 (EKVX): 49.1 µM (inactive); GI50 (Malme-3M): > 100 µM (inactive); GI50 (RPMI-8226): 37.1 µM (inactive); GI50 (U-251): > 100 µM (inactive); GI50 (SK-MEL-28): > 100 µM (inactive); GI50 (ACHN): 89.1 µM (inactive); GI50 (T47D): 37.2 µM (inactive); GI50 (DU-145): > 100 µM (inactive); GI50 (NCI-H23): 49.5 µM (inactive); GI50 (HOP-62): 66.5 µM (inactive); GI50 (MOLT-4): 46.2 µM (inactive); GI50 (HCT-116): > 100 µM (inactive); GI50 (MCF7): 6.84 µM (inactive); GI50 (SNB-75): > 100 µM (inactive); GI50 (SK-MEL-2): > 100 µM (inactive); GI50 (SR): 42.6 µM (inactive); GI50 (TK-10): > 100 µM (inactive); GI50 (K562): > 10 µM (inactive); GI50 (HCC 2998): 16.2 µM (inactive)
